This note sets out measurements from paper PMC9056950, “Synthesis and biochemical evaluation of cephalosporin analogues equipped with chemical tethers” (RSC Advances, 2020).

In brackets after ≈: the same amount, converted by molar mass.

One experiment has as its target T1, PBP4 (Bacillus subtilis, UniProt P32959).
T1 sequence (P32959 1-451): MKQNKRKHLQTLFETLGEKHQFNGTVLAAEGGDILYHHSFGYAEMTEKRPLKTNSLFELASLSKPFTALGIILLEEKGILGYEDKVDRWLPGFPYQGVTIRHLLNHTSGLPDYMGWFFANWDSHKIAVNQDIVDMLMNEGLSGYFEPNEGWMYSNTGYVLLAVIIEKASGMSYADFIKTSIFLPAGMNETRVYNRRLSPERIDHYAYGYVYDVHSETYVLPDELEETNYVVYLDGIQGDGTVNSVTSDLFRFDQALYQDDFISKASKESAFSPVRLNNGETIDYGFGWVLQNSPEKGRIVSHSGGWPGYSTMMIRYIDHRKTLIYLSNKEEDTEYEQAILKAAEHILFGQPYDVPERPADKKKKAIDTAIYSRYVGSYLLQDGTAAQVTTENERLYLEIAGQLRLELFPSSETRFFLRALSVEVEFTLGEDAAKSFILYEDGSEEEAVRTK
Put plainly: biochemical. Set-up: gene pbpE; commercial protein (Generon); protein thermal shift assay, melting temperature change of PBP4. The following applies: read-out: Average DTm/°C. On the procedure: The thermal shift assay was carried out using the Protein Thermal Shift™ assay kit (Applied Biosystems). 3 μM of purified E. coli PBP3 was incubated with the β-lactam analogues at 300 μM concentration in a mixture containing the Protein Thermal Shift™ Dye. The samples were then heated in a StepOnePlus™ Real-Time PCR System from 25 to 95 °C at a rate of 1 °C min^−1. Tests were carried out in triplicate and the averages plotted as the negative first derivative vs. temperature. Reference wells, i.e. solutions consisting only of only PBP3 with dye, PBP3 only, and dye only, were used as controls. Melting temperature (Tm) values were determined with and without each compound, and the change in melting temperature (ΔTm) was obtained, Fig. 2. The thermal shift assay with PBP4 was carried out using the protocol described for PBP3, with the follow deriviatisation: 500 nM of purified Bacillus subtilis PBP4 was incubated with 50 μM of the β-lactam analogues. A thermal shift assay was used to investigate the binding of the cephalexin analogues to the therapeutic target, PBP, in vitro. This assay provides a fast and inexpensive method of detecting a ligand binding to a protein of interest. Briefly, the protein is gradually heated in the presence of a fluorescent dye that binds non-specifically to the hydrophobic surfaces. […]

The next experiment concerns T2, S. aureus (NCTC 6571).
T2 construct: NCTC 6571
Set-up: species or system Staphylococcus aureus NCTC 6571; broth microdilution growth, OD600 after 16 h, MIC from GraphPad fit. The conditions noted are these: 16 h. On the procedure: Stock solutions of each compound were prepared in 50% DMSO/water at ×100 the final concentration. In a 96-well plate, 2 μL of the test compounds were added to each well. Each plate included the positive control (750 μg mL^−1 chloramphenicol), the negative control (50% DMSO/water) and media only wells. To each test well was then added 198 μL of the required bacteria stock (OD 0.05). E. coli assays were carried out using LB broth, S. aureus were carried out using tryptic soy broth (TSB). Plates were incubated at 37 °C and the OD600 was measured (Epoch 2 Microplate Spectrophotometer, BioTek) every 30 min over a 17 h period. Tests were carried out in triplicate, the background absorbance was removed using reference wells, and the averages were determined. Dose curves were plotting using the OD600 after 16 h growth vs. compound concentration. MICs were defined as the minimum concentration of compound at which no significant growth was observed after 16 h incubation. MIC values were determined using GraphPad Prism (version 8.3.0). The activity of 1–12 was investigated with growth assays against Staphylococcus aureus (NCTC 6571). S. aureus is a virulent Gram-positive pathogen that can cause a wide range of infections in humans.[29,30] Each compound was tested at 400–6 μM concentrations, with lower concentrations tested as required.

For the compound `CC1(C)S[C@@H]2[C@H](NC(=O)Cc3ccccc3)C(=O)N2[C@H]1C(=O)O` [compound 11, penicillin], on PBP4, the ΔTm at 50 µM was -0.746 °C. Moreover, the “MIC (best-fit)” value in the experiment on S. aureus (NCTC 6571) stood at 0.0977 µM (≈ 0.0327 µg/mL).
